Here are results for 18 molecules from US12577206B2 (BRISTOL-MYERS SQUIBB COMPANY, priority 2020, dated 2026).

One experiment has as its target T1, human FPR1 (Homo sapiens, UniProt P21462).
T1 sequence (P21462 1-350): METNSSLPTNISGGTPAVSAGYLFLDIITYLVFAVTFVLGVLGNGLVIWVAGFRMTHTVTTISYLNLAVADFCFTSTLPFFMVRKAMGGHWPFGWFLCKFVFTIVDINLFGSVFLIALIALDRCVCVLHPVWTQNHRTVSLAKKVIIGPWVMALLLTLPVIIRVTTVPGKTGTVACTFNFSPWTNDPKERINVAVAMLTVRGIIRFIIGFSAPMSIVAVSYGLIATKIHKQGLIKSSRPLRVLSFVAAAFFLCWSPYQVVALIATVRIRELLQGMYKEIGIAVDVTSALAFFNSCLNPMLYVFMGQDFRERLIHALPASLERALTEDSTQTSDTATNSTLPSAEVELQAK
The experiment in a line: FPR1 cyclic adenosine monophosphate (cAMP) assay. In kind it is cell-based. The conditions noted are these: CHO cells overexpressing human FPR1; forskolin 10 μM; inhibition of cAMP production; HTRF; read-out: hFPR1 cAMP2 EC50. In a few lines: (§1)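 CHO cells overexpressing human FPR1 (4,000/well) or FPR2 (2,000/well) were incubated 30 min at room temperature with compound (0.020 nM to 100 μM, 1% DMSO), IBMX 200 μM, and forskolin at 10 μM (FPR1) or 5 μM (FPR2), all final. HTRF cAMP read-out; inhibition fitted by 4-parameter logistic equation.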
For orientation: Changes in cAMP serve as a functional read-out for many G protein-coupled receptors.

Another experiment addresses T2, human FPR2 (Homo sapiens, UniProt P25090).
T2 sequence (P25090 1-351): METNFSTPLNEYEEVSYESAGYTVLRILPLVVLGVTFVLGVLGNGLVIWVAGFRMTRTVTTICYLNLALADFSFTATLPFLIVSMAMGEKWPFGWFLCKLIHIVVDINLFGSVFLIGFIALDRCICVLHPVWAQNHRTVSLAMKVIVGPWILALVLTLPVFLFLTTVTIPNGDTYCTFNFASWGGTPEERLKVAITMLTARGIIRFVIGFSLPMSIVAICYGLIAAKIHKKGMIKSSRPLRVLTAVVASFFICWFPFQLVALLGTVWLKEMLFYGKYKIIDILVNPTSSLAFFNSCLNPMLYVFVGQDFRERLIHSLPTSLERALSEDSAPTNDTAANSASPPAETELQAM
Briefly: FPR2 cyclic adenosine monophosphate (cAMP) assay. In kind it is cell-based. The conditions noted are these: CHO cells overexpressing human FPR2; forskolin 5 μM; inhibition of cAMP production; HTRF; read-out: hFPR2 cAMP2 EC50. In short, it runs like this:
as §1

A value given as a limit tells only on which side of the number the result lay.

`COc1cc(F)c(-c2c(NC(=O)c3ccc(OC(F)F)cc3)c(=O)n(-c3nc(OC)ccc3Cl)n2C)c(F)c1` [Example 182, N-[2-(3-chloro-6-methoxypyridin-2-yl)-5-(2,6-difluoro-4-methoxyphenyl)-1-methyl-3-oxo-2,3-dihydro-1H-pyrazol-4-yl]-4-(difluoromethoxy)benzamide]: the half-maximal effective concentration (EC50) (commonly the midpoint of the concentration-response curve) on human FPR1 was more than 10000 nM; on human FPR2 it was 12 nM.
Consider `COc1cc(F)c(-c2c(NC(=O)c3ccc(OC(F)F)cc3)c(=O)n(-c3cc(C#N)ccc3C#N)n2C)c(F)c1` [Example 179, N-[2-(2,5-dicyanophenyl)-5-(2,6-difluoro-4-methoxyphenyl)-1-methyl-3-oxo-2,3-dihydro-1H-pyrazol-4-yl]-4-(difluoromethoxy)benzamide], for which the values for the EC50 at human FPR1 and at human FPR2 were 300 nM and 23 nM, respectively.
As for `COc1cc(F)c(-c2c(NC(=O)c3ccc(OC(F)F)cc3)c(=O)n(-c3cc(OCCO)cc(C(F)(F)F)n3)n2C)c(F)c1` [Example 348, N-(5-(2,6-Difluoro-4-methoxyphenyl)-2-(4-(2-hydroxyethoxy)-6-(trifluoromethyl)pyridin-2-yl)-1-methyl-3-oxo-2,3-dihydro-1H-pyrazol-4-yl)-4-(difluoromethoxy)benzamide], the EC50 on human FPR1 is 2200 nM; on human FPR2, 20 nM.
The matching figures for `COCCOc1ccc(C(F)(F)F)c(-n2c(=O)c(NC(=O)c3ccc(OC(F)F)cc3)c(-c3c(F)cc(OC)cc3F)n2C)n1` [Example 278, N-[5-(2,6-difluoro-4-methoxyphenyl)-2-[6-(2-methoxyethoxy)-3-(trifluoromethyl)pyridin-2-yl]-1-methyl-3-oxo-2,3-dihydro-1H-pyrazol-4-yl]-4-(difluoromethoxy)benzamide]: more than 10000 nM and 2 nM.
`COc1cc(F)c(-c2c(NC(=O)c3ccc(OC(F)F)cc3)c(=O)n(-c3nc(N4CCCC4=O)ccc3C(F)(F)F)n2C)c(F)c1` [Example 297, N-[5-(2,6-difluoro-4-methoxyphenyl)-1-methyl-3-oxo-2-[6-(2-oxopyrrolidin-1-yl)-3-(tifluoromethyl)pyridin-2-yl]-2,3-dihydro-1H-pyrazol-4-yl]-4-(difluoromethoxy)benzamide]: the EC50 worked out at 380 nM on human FPR1 and 2 nM at human FPR2.
In the case of `COc1cc(F)c(-c2c(NC(=O)c3ccc(OC(F)F)cc3)c(=O)n(-c3cc(C#N)cc(C)n3)n2C)c(F)c1` [Example 328, N-(2-(4-Cyano-6-methylpyridin-2-yl)-5-(2,6-difluoro-4-methoxyphenyl)-1-methyl-3-oxo-2,3-dihydro-1H-pyrazol-4-yl)-4-(difluoromethoxy)benzamide], the figures for the EC50 at human FPR1 and on human FPR2 were 1600 nM and 15 nM, respectively.
Consider `COc1cc(F)c(-c2c(NC(=O)c3ccc(OC(F)F)cc3)c(=O)n(-c3nc(NCC(=O)NC4CC4)ccc3C(F)(F)F)n2C)c(F)c1` [Example 229, N-[2-(6-{[(cyclopropylcarbamoyl)methy]amino}-3-(trifluoromethyl)pyridin-2-yl)-5-(2,6-difluoro-4-methoxyphenyl)-1-methyl-3-oxo-2,3-dihydro-1H-pyrazol-4-yl]-4-(difluoromethoxy)benzamide], for which the EC50 on human FPR1 was more than 10000 nM; on human FPR2, 3 nM.
Take `COCC(CO)Oc1cc(OC)cc(-n2c(=O)c(NC(=O)c3ccc(OC(F)F)cc3)c(-c3c(F)cc(OC)cc3F)n2C)n1` (stereo not drawn) [Example 386, N-(5-(2,6-Difluoro-4-methoxyphenyl)-2-(6-((1-hydroxy-3-methoxypropan-2-yl)oxy)-4-methoxypyridin-2-yl)-1-methyl-3-oxo-2,3-dihydro-1H-pyrazol-4-yl)-4-(difluoromethoxy)benzamide]: the EC50 is more than 10000 nM at human FPR1 and 9 nM at human FPR2.
As to `COc1cc(F)c(-c2c(NC(=O)c3ccc(C4CC4)cc3)c(=O)n(-c3ccccc3)n2C)c(F)c1` [Example 16, 4-cyclopropyl-N-[5-(2,6-difluoro-4-methoxyphenyl)-1-methyl-3-oxo-2-phenyl-2,3-dihydro-1H-pyrazol-4-yl]benzamide], the figures for the concentration for a half-maximal effect (EC50) on human FPR1 and at human FPR2 were more than 10000 nM and 30 nM, respectively.
Consider `COc1cc(F)c(-c2c(NC(=O)c3ccc(OC(F)F)cc3)c(=O)n(-c3nc(N4CCC(C)(O)CC4)ccc3C(F)(F)F)n2C)c(F)c1` [Example 314, N-[5-(2,6-difluoro-4-methoxyphenyl)-2-[6-(4-hydroxy-4-methylpiperidin-1-yl)-3-(trifluoromethyl)pyridin-2-yl]-1-methyl-3-oxo-2,3-dihydro-1H-pyrazol-4-yl]-4-(difluoromethoxy)benzamide], for which the EC50 at human FPR1 was found to be 2700 nM; at human FPR2, 1 nM.
`COc1cc(F)c(-c2c(NC(=O)c3ccc(OC(F)F)cc3)c(=O)n(-c3nc(N4CC(C)(O)C4)ccc3Cl)n2C)c(F)c1` [Example 307, N-{2-[3-chloro-6-(3-hydroxy-3-methylazetidin-1-yl)pyridin-2-yl]-5-(2,6-difluoro-4-methoxyphenyl)-1-methyl-3-oxo-2,3-dihydro-1H-pyrazol-4-yl}-4-(difluoromethoxy)benzamide]: the EC50 at human FPR1 was more than 10000 nM; at human FPR2, 5 nM.
Take `COc1cc(F)c(-c2c(NC(=O)c3ccc(OC(F)F)cc3)c(=O)n(-c3cccc(F)c3Cl)n2C)c(F)c1` [Example 175, N-[2-(2-chloro-3-fluorophenyl)-5-(2,6-difluoro-4-methoxyphenyl)-1-methyl-3-oxo-2,3-dihydro-1H-pyrazol-4-yl]-4-(difluoromethoxy)benzamide]: the values for the EC50 at human FPR1 and at human FPR2 were more than 10000 nM and 25 nM, respectively.
The matching figures for `CCOc1cc(-n2c(=O)c(NC(=O)c3ccc(OC(F)F)cc3)c(-c3c(F)cc(OC)cc3F)n2C)cc(C(F)(F)F)c1` [Example 122, N-[5-(2,6-difluoro-4-methoxyphenyl)-2-[3-ethoxy-5-(trifluoromethyl)phenyl]-1-methyl-3-oxo-2,3-dihydro-1H-pyrazol-4-yl]-4-(difluoromethoxy)benzamide]: more than 10000 nM and 21 nM.
As to `COc1cc(F)c(-c2c(NC(=O)c3ccc(OC(F)F)cc3)c(=O)n(-c3cccc(C(C)O)n3)n2C)c(F)c1` (stereo not drawn) [Example 86, N-[5-(2,6-difluoro-4-methoxyphenyl)-2-[6-(1-hydroxyethyl)pyridin-2-yl]-1-methyl-3-oxo-2,3-dihydro-1H-pyrazol-4-yl]-4-(difluoromethoxy)benzamide], the EC50 at human FPR1 amounted to 1400 nM; at human FPR2, 10 nM.
Turning to `COc1cc(F)c(-c2c(NC(=O)c3ccc(OC(F)F)cc3)c(=O)n(-c3nc(NC(C)(C)C)ccc3C(F)(F)F)n2C)c(F)c1` [Example 265, N-{2-[6-(tert-butylamino)-3-(trifluoromethyl)pyridin-2-yl]-5-(2,6-difluoro-4-methoxyphenyl)-1-methyl-3-oxo-2,3-dihydro-1H-pyrazol-4-yl}-4-(difluoromethoxy)benzamide], the values for the half-maximal effective concentration (EC50) on human FPR1 and at human FPR2 were more than 10000 nM and 2 nM, respectively.
On to `CC(C)Oc1cc(OCCO)nc(-n2c(=O)c(NC(=O)c3ccc(OC(F)(F)F)cc3)c(-c3c(F)cc(Cl)cc3F)n2C)c1` [Example 398, N-(5-(4-chloro-2,6-difluorophenyl)-2-(6-(2-hydroxyethoxy)-4-isopropoxypyridin-2-yl)-1-methyl-3-oxo-2,3-dihydro-1H-pyrazol-4-yl)-4-(trifluoromethoxy)benzamide], for which the EC50 at human FPR1 came to 590 nM; on human FPR2, 24 nM.
Take `COc1cc(OCC2CCS(=O)(=O)CC2)nc(-n2c(=O)c(NC(=O)c3ccc(OC(F)F)cc3)c(-c3c(F)cc(OC)cc3F)n2C)c1` [Example 337, N-(5-(2,6-Difluoro-4-methoxyphenyl)-2-(6-((1,1-dioxidotetrahydro-2H-thiopyran-4-yl)methoxy)-4-methoxypyridin-2-yl)-1-methyl-3-oxo-2,3-dihydro-1H-pyrazol-4-yl)-4-(difluoromethoxy)benzamide]: the figures for the EC50 on human FPR1 and at human FPR2 were more than 10000 nM and 15 nM, respectively.
In the case of `COc1cc(F)c(-c2c(NC(=O)c3ccc(OC(F)F)cc3)c(=O)n(-c3nc(N4CCCC4C(F)(F)F)ccc3C(F)(F)F)n2C)c(F)c1` (stereo not drawn) [Example 302, N-[5-(2,6-difluoro-4-methoxyphenyl)-1-methyl-3-oxo-2-[3-(trifluoromethyl)-6-[2-(trifluoromethyl)pyrrolidin-1-yl]pyridin-2-yl]-2,3-dihydro-1H-pyrazol-4-yl]-4-(difluoromethoxy)benzamide], the EC50 at human FPR1 is 2200 nM; on human FPR2, 1 nM.
